Values joined by “and” are separate entries in the source; they are usually repeats but may differ in a detail not shown here. Equal values may be shown once.
How the values were obtained:
HNEpCs = assay: Cytokine release into HNEpC supernatant (LEGENDplex / ELISA); type: cell-based, human; conditions: 5 h, lugdunin 2 µM or Pam2Cys 100 ng/mL, two technical replicates, Fig 1f
S. aureus = S. aureus skin colonization after epicutaneous pretreatment of mouse skin (CFU); type: in vivo, C57BL/6 WT mice; conditions: treatment of mouse skin; text to Fig 1b
Description: (§1) Fig. 1 Lugdunin sensitizes epithelial cells for innate immune defense. a Primary human keratinocytes (PHKs) were pretreated with S. epidermidis conditioned medium (CM), indicated lugdunin concentrations, or the combination of both for 20 h. Subsequently, cells were infected with S. aureus for 1.5 h followed by cell lysis and determination of colony-forming units (CFUs). Shown is one representative experiment of three independent experiments with six technical replicates ± s.e.m. n.s., not significant. b Dorsal skin of mice was pretreated with S. epidermidis CM, 1.5 µg lugdunin alone or in combination with S. epidermidis CM for 24 h. Subsequently, S. aureus CFUs were determined. Horizontal lines represent the mean of each group ± s.e.m. c PHKs were treated with 2 μM lugdunin or with S. epidermidis CM alone or in combination for 20 h and subsequently expression of indicated antimicrobial peptides (AMPs) (respective protein names in brackets) was analyzed and normalized to actin. Shown is one representative experiment of three independent experiments with two technical replicates ± s.e.m. d PHKs were treated with 2 µM lugdunin or 100 ng/mL Pam2Cys for 5 h and subsequently the concentration of indicated cytokines in the supernatant was analyzed by LEGENDplex^TM (BioLegend). […]

PBMCs = assay: Cytokine release into PBMC supernatant (LEGENDplex / ELISA); type: cell-based, human; conditions: 5 h, lugdunin 2 µM or Pam2Cys 100 ng/mL, two technical replicates, Fig 1f
Description: as §1

Lugdunin
CXCL8 concentration in supernatant (HNEpCs): 421.035 and 417.001
reduction of colonizing S. aureus (in words) (S. aureus): slight, but not significant, reduction
CXCL8 concentration in supernatant (PBMCs): 231.761 and 233.451

— publication PMC6588697, “Lugdunin amplifies innate immune responses in the skin in synergy with host- and microbiota-derived factors” (Nature Communications, 2019)
